Source: article PMC5656322, “BAK1 is involved in AtRALF1-induced inhibition of root cell expansion” (PLoS Genetics, 2017)
Where no end group is shown, it is not given here.

Tested on: truncated proteins from the extracellular domain of BAK1
Experiment: Yeast two-hybrid with truncated BAK1-ECD
Type: binding, Arabidopsis thaliana
Description: Fig 6 AtRALF1 interacts physically with BAK1 protein. (A) The active AtRALF1 peptide interacts with the extracellular domain (ECD) of BAK1 (BAK1-ECD) in yeast. The AtRALF1 protein fused to the GAL4 DNA-binding domain (AtRALF1-pGBKT7) was used as bait to test its interaction with the extracellular domain of the proteins fused to the GAL4 activation domain (pGADT7): BAK1 (BAK1-ECD), BAK7 (BAK7-ECD), BRI1 (BRI1-ECD) and FLS2 (FLS2-ECD). (B) Blueprint showing the truncated proteins from the extracellular domain of BAK1 tested in the two-hybrid assay. The extracellular domain of BAK1 comprises leucine zippers (LZ), 5 leucine rich-regions (LRRs) and a proline-rich region (pro-rich). (C) AtRALF1-pGBKT7 was used as bait to test its interaction with truncated proteins fused to the GAL4 activation domain (pGADT7). The transformed yeast cells in (A) and (C) were selected on a synthetic complete medium lacking leucine, tryptophan and histidine to test interactions. (D, E) Co-immunoprecipitation (Co-IP) in vitro between the extracellular domain of BAK1 (HA-BAK1-ECD) and AtRALF1 recombinant purified proteins. HA-BAK1-ECD was detected with an anti-HA antibody. AtRALF1 was detected with an anti-RALF antibody. (F) Recombinant AtRALF1 is co-immunoprecipitated with the BAK1-GFP protein expressed in tobacco. BAK1-GFP was detected with an anti-GFP antibody. […] (G) Isothermal titration calorimetry (ITC) of the extracellular domain of BAK1 (BAK1-ECD) vs. AtRALF1 in ITC buffer (15 mM HEPES, pH 6.8). ITC experiments were simulated using 28 injections of BAK1-ED (0.7 mM, vol 10 μL) on AtRALF1 (0.03 mM vol cell = 1.4 mL) at 25°C. […]
The coding regions of the mature peptides AtRALF1 and AtRALF34 were amplified from Arabidopsis genomic DNA and fused to the GAL4 DNA-binding domain and the MYC epitope tag using the NdeI/BamHI sites in the pGBKT7 (Clontech) vector. […] The proteins fused to the HA and MYC epitope tags were detected by protein blotting. […]
Supplementary file pgen.1007053.s012.pdf: S12 Fig Analyses of protein extracts from yeast. […] The proteins were monitored using an anti-HA antibody. […]

## AtRALF1: root-specific RALF isoform in Arabidopsis; recombinant peptide hormone produced in E. coli (ATTKYISYQSLKRNSVPCSRRGASYYNCQNGAQANPYSRGCSKIARCRS; ends and bridges not checked; cysteine pairing not given here)
12 truncated proteins
  interaction with truncated BAK1-ECD: only two that interacted with AtRALF1: Leu zippers + LRR1 + LRR2 + LRR3 and Leu zippers + LRR1 + LRR2
C-terminal deletion
  interaction with BAK1-ECD lacking Pro-rich region and LRR5: abolished the interaction
Deletions from N-terminal
  interaction with N-terminal deletions of BAK1-ECD: None of the deletions from N-terminal were able to interact with AtRALF1
